This is an account of results in patent US20120301551A1, “COMPOUNDS AND COMPOSITIONS FOR TREATING NEURONAL DEATH OR NEUROLOGICAL DYSFUNCTION” (Neurotech Pharmaceuticals Co., Ltd., priority 2005, published 2012).

pIC50: −log10 of the molar value.

A short description of test [1]: hydroxyl radical scavenging in test tube. It is filed as biochemical. The protocol:
(§1) In addition, scavenging effects of superoxide and hydroxyl radical in test tube were evaluated. Hydroxyl radical scavenging activities of 0.1 uM, 1 uM and 10 uM of chemical 01 were 13.35%, 33.33% and 71.72%, respectively.

Test [2] can be described thus: superoxide scavenging in test tube. The test is classed as biochemical. The settings on record: read-out: superoxide scavenging effect (IC50 value). The protocol:
as §1

Test [3] deals with G93A transgenic mice. The experiment in a line: oxidative stress in lumbar spinal motor neurons of G93A transgenic mice (nitrotyrosine, MitoTracker). It is filed as in vivo, mouse. The settings on record: 30 mg/kg/d oral in diet from 8 weeks of age, at 10 weeks of age. The source says:
D: Fluorescent photomicrographs of the lumbar ventral section immunolabeled with nitrotyrosine antibody from the wild type (a), or ALS transgenic mice treated with vehicle (b), or 2-hydroxy TTBA for 2 weeks starting from at age of 8 weeks (c). Arrows indicate motor neurons (top panel). Levels of nitrotyrosine were quantitated, mean±SEM (n=15 sections from 3 mice per each condition (bottom panel). p<0.05 using ANOVA and Student-Newman-Keuls test.
E: Same as D except measurement of the fluorescence intensity of oxidized MT red CM-H2XRos. p<0.05 using ANOVA and Student-Newman-Keuls test.
G93A transgenic mice received oral administration of 2-hydroxy-TTBA (30 mg/kg/d) in the diet from 8 weeks of age. The oral administration of 2-Hydroxy-TTBA blocked nitrotyrosine, and mitochondrial free radical increased in the lumbar spinal motor neurons at 10 weeks of age compared to the wild type (FIGS. 5D & 5E). […] Thus, cell necrosis and Fas-mediated apoptosis induced in G93A mice can be prevented by oral administration of 2-hydroxy-TTBA and Li^+.

With `O=C(O)c1cc(NCCc2ccc(C(F)(F)F)cc2)ccc1O` [chemical 01, 2-Hydroxy-5-[2-(4-trifluoromethyl-phenyl)-ethylamino]-benzoic acid], the pIC50 (as a rule, the IC50 on a negative log10 scale, so that one unit is a factor of ten) in test [1] is 6.01; in test [2] (NADH/PMS system) it was 4.58; in test [2] (X/XO system), under 4.00. Also, the “hydroxyl radical scavenging activity” value in test [1] (0.1 uM) is reported as 13.35%; in test [1] (1 uM), 33.33%; in test [1] (10 uM) it was 71.72%.
Consider `O=C(O)c1cc(NCc2c(F)c(F)c(C(F)(F)F)c(F)c2F)ccc1O` [2-Hydroxy-TTBA, 2-hydroxy-5-(2,3,5,6-tetrafluoro-4-trifluoromethyl-benzylamino)-benzoic acid], for which the “nitrotyrosine and mitochondrial free radical increased in the lumbar spinal motor neurons” value in test [3] is “blocked”.
